The record followed here is patent publication US10093678B2, “Azaspiro derivatives as TRPM8 antagonists” (RaQualia Pharma Inc., priority 2014, dated 2018).

In this test the target is T1, human TRPM8 (Homo sapiens, UniProt Q7Z2W7).
T1 construct: expressed in transfected cells; host or cells: HEK293
T1 sequence (Q7Z2W7 whole entry): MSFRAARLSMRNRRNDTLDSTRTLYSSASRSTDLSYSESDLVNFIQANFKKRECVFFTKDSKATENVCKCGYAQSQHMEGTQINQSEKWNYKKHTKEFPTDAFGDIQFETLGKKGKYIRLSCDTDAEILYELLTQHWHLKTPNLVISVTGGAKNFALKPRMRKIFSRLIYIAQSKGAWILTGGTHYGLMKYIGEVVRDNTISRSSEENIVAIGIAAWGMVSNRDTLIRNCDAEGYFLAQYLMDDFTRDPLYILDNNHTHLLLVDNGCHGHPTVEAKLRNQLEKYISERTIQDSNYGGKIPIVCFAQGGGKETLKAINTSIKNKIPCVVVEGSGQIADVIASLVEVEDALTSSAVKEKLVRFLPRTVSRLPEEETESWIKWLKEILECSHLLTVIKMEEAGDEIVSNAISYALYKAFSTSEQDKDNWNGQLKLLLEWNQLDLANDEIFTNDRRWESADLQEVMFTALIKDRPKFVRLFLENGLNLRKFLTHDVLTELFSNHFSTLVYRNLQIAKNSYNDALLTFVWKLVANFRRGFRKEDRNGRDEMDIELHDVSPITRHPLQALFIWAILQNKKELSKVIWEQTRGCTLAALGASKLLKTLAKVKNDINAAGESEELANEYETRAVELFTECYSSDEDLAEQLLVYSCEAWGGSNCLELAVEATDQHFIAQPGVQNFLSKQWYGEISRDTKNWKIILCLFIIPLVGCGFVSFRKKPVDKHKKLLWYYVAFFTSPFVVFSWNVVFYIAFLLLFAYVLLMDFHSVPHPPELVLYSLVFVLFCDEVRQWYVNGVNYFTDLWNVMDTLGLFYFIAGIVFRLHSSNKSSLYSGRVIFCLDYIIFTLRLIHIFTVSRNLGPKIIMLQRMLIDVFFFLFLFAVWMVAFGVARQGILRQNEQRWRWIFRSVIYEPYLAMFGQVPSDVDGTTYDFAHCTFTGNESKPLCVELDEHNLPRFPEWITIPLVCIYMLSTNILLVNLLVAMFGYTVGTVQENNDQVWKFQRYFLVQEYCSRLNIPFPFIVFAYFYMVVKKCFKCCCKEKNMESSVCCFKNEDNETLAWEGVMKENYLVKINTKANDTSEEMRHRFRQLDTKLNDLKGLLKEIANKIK
The test is described as follows: Menthol-induced Ca2+ influx in HEK293 cells stably expressing human TRPM8. The class given is cell-based. Particulars: 30 microM menthol-induced Ca2+ influx, read-out: IC50 against TRPM8. A digest of the protocol:
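HEK293 cells stably expressing human TRPM8 were loaded with Fluo4-AM for 1 h at room temperature, preincubated 5 min with compound, then challenged with 30 microM menthol. Calcium rise was read by FDSS imaging. IC50 came from 11-point curves using duplicate-well means.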
With `NCc1ccncc1-c1ccc(C(=O)CN2C(=O)NC3(CCC(F)(F)CC3)C2=O)cc1` [Example 6-58, 3-(2-(4-(4-(aminomethyl)pyridin-3-yl)phenyl)-2-oxoethyl)-8,8-difluoro-1,3-diazaspiro[4.5]decane-2,4-dione], the IC50 was less than 100 nM.
In the case of `Cc1cc(C(=O)CN2C(=O)NC3(CCC(F)(F)CC3)C2=O)ccc1-c1cccnc1` [Example 13-7], the IC50 is less than 100 nM.
In the case of `Cc1ccsc1-c1ccc(C(=O)CN2C(=O)NC3(CCC(F)(F)CC3)C2=O)cc1` [Example 6-29] it was less than 100 nM; in that of `O=C(CN1C(=O)NC2(CCC(F)(F)CC2)C1=O)c1ccc(-c2ccccc2CO)nc1` [Example 9-17], less than 100 nM; in that of `O=C1Cc2c(cccc2-c2ccc(C(=O)CN3C(=O)NC4(CCC(F)(F)CC4)C3=O)cn2)N1` [Example 9-19], less than 100 nM.
In the case of `Cc1nccnc1-c1ccc(C(=O)CN2C(=O)NC3(CCCCC3)C2=O)cc1` [Example 7-14] it was less than 100 nM; in that of `Cn1c(C(=O)CN2C(=O)NC3(CCC(F)(F)CC3)C2=O)ccc1-c1cncc(F)c1` [Example 16-31], less than 500 nM.
In the case of `O=C(CN1C(=O)NC2(CCC(F)(F)CC2)C1=O)c1ccc(-n2ccc3cccnc32)nc1` [Example 19-10] it was less than 100 nM; in that of `CCc1ccccc1-c1ccc(C(=O)CN2C(=O)NC3(CCC(F)(F)CC3)C2=O)cn1` [Example 9-20], less than 100 nM.
On to `COc1ncccc1-c1ccc(C(=O)CN2C(=O)NC3(CCC(F)(F)CC3)C2=O)cc1` [Example 13-45], for which the IC50 is less than 100 nM.
As for `O=C(CN1C(=O)NC2(CCC(F)(F)CC2)C1=O)c1ccc(-c2cccc3nccnc23)cc1` [Example 6-30], the figure is less than 100 nM; as for `Cc1sc(C(=O)CN2C(=O)NC3(CCC(F)(F)CC3)C2=O)c(C)c1-c1cncnc1` [Example 15-5], less than 100 nM; as for `O=C(CN1C(=O)NC2(CCC(F)(F)CC2)C1=O)c1ccc(Oc2ncccn2)cc1` [Example 5-21], less than 500 nM.
Consider `N#Cc1cncnc1-c1ccc(C(=O)CN2C(=O)NC3(CCC(F)(F)CC3)C2=O)cc1` [Example 6-93], for which the IC50 is less than 500 nM.
With `Cc1ccncc1-c1ccc(C(=O)CN2C(=O)NC3(CCC(F)(F)CC3)C2=O)cc1Cl` [Example 13-23], the IC50 is less than 100 nM.
In the case of `COC(=O)c1cccc(-n2c(C)cc(C(=O)CN3C(=O)NC4(CCCCC4)C3=O)c2C)c1` [Example 3-8] it was less than 100 nM; in that of `Cc1ncccc1-c1ccc(C(=O)CN2C(=O)OC3(CCC(F)(F)CC3)C2=O)cc1` [Example 13-72], less than 100 nM.
As for `Cc1nc(C(=O)CN2C(=O)NC3(CCC(F)(F)CC3)C2=O)sc1-c1cccc2c1CNC2=O` [Example 18-12], the figure is less than 500 nM; as for `Cc1ccccc1-c1c(C)sc(C(=O)CN2C(=O)NC3(CCC(F)(F)CC3)C2=O)c1C` [Example 15-9], less than 500 nM.
As for `Cc1ccccc1-c1ccc(C(=O)CN2C(=O)NC3(CCC(F)(F)CC3)C2=O)n1C` [Example 16-32], the figure is less than 500 nM; as for `O=C(CN1C(=O)NC2(CCC(F)(F)CC2)C1=O)c1ccc(-c2cccc3nccn23)cc1` [Example 6-21], less than 100 nM; as for `N#Cc1cccc(-c2ccc(C(=O)CN3C(=O)NC4(CCC(F)(F)CC4)C3=O)cc2Cl)c1` [Example 13-68], less than 500 nM.
On to `Cc1cc(C(=O)CN2C(=O)NC3(CCC(F)(F)CC3)C2=O)n(C)c1-c1ccccc1C#N` [Example 16-7], for which the IC50 is less than 100 nM.
As for `O=C(CN1C(=O)NC2(CCC(F)(F)CC2)C1=O)c1ccc(-c2cccc3cccnc23)c(F)c1` [Example 13-21], the figure is less than 100 nM.
In the case of `CC(=O)c1ccccc1-c1ccc(C(=O)CN2C(=O)NC3(CCC(F)(F)CC3)C2=O)cc1` [Example 6-102] it was less than 500 nM.
With `Cc1cc(C(=O)CN2C(=O)NC3(CCC(F)(F)CC3)C2=O)ccc1-c1cccc2ccncc12` [Example 13-15], the IC50 was less than 100 nM.
`Cn1c(C(=O)CN2C(=O)NC3(CCC(F)(F)CC3)C2=O)ccc1-c1cccnc1` [Example 16-3]: the IC50 was less than 100 nM.
As for `Cc1cc2ccccc2n1-c1ccc(C(=O)CN2C(=O)NC3(CCC(F)(F)CC3)C2=O)cn1` [Example 19-12], the figure is less than 100 nM; as for `O=C(CN1C(=O)NC2(CCC(F)(F)CC2)C1=O)c1ccc(-c2cccc3cccnc23)cc1` [Example 13-46], less than 100 nM.
As for `Cc1c(C(=O)CN2C(=O)NC3(CCC(F)(F)CC3)C2=O)nn(C)c1-c1cccnc1` [Example 4-7], the figure is less than 500 nM; as for `Cn1c(-c2cccnc2)cnc1C(=O)CN1C(=O)NC2(CCC(F)(F)CC2)C1=O` [Example 17-15], less than 500 nM.
With `Cc1nc(C(=O)CN2C(=O)NC3(CCC(F)(F)CC3)C2=O)n(C)c1-c1cccc2ccncc12` [Example 17-9], the IC50 was less than 100 nM.
In the case of `O=C(CN1C(=O)NC2(CCC(F)(F)CC2)C1=O)c1ccc(-c2cccc3c2CCN3)cc1` [Example 6-72], the IC50 was less than 500 nM.
In the case of `O=C(CN1C(=O)NC2(CCC(F)(F)CC2)C1=O)c1ccc(-n2cnc3ncncc32)cc1` [Example 19-35] it was less than 500 nM; in that of `Cc1sc(C(=O)CN2C(=O)NC3(CCC(F)(F)CC3)C2=O)c(C)c1-c1cccc(C(N)=O)c1` [Example 15-7], less than 100 nM.
Take `Cc1nc(C(=O)CN2C(=O)NC3(CCC(F)(F)CC3)C2=O)n(C)c1-c1cc(F)cc(F)c1` [Example 17-11]: the IC50 is less than 100 nM.
As for `O=C(CN1C(=O)NC2(CCC(F)(F)CC2)C1=O)c1cnc(N2C(=O)COc3ccccc32)cn1` [Example 19-25], the figure is less than 100 nM; as for `O=C(CN1CC2(CCC(F)(F)CC2)OC1=O)c1ccc(-c2ccccc2CO)cc1` [Example 13-55], less than 100 nM.
In the case of `Cc1sc(C(=O)CN2C(=O)NC3(CCC(F)(F)CC3)C2=O)c(C)c1-c1cncc(C(N)=O)c1` [Example 15-10] it was less than 500 nM.
For the compound `N#Cc1ccccc1-c1ccc(C(=O)CN2C(=O)NC3(CCC(F)(F)CC3)C2=O)cc1Cl` [Example 13-25], the IC50 is less than 100 nM.
In the case of `Cc1nccnc1-c1ccc(C(=O)CN2CC3(CCC(F)(F)CC3)OC2=O)cc1` [Example 7-19] it was less than 500 nM.
In the case of `Cc1cc(-n2c(C)cc(C(=O)CN3C(=O)OC4(CC5CCC4C5)C3=O)c2C)no1` (centres unmarked) [Example 1-4] it was less than 500 nM; in that of `O=C(CN1C(=O)NC2(CCC(F)(F)CC2)C1=O)c1ccc(-n2c(=O)oc3ccccc32)cc1` [Example 19-30], less than 10 nM.
In the case of `Cc1ccccc1-c1ccc(C(=O)CN2C(=O)NC3(CCC(F)(F)CC3)C2=O)nc1` [Example 10-2] it was less than 100 nM; in that of `O=C(CN1C(=O)NC2(CCCCC2)C1=O)c1ccc(Oc2ccccn2)cc1` [Example 5-18], less than 100 nM; in that of `O=C(CN1C(=O)NC2(CCC(F)(F)CC2)C1=O)c1ccc(-c2cccc(O)c2)cc1` [Example 6-35], less than 100 nM.
For `O=C(CN1C(=O)NC2(CCC(F)(F)CC2)C1=O)c1ccc(Oc2cccc(Cl)c2)nc1` [Example 20-8], the IC50 was less than 100 nM.
With `Cc1nc2ccccc2n1-c1ccc(C(=O)CN2C(=O)NC3(CCC(F)(F)CC3)C2=O)cn1` [Example 5-14], the IC50 is less than 10 nM.
In the case of `O=C(CN1C(=O)NC2(CCC(F)(F)CC2)C1=O)c1ccc(N2C(=O)Cc3ccccc32)cc1` [Example 19-26] it was less than 100 nM.
As for `Cc1cccc(-n2c(C)nc(C(=O)CN3CC4(CCC(F)(F)CC4)OC3=O)c2C)c1` [Example 2-17], the figure is less than 500 nM.
Regarding `Cc1cc(C(=O)CN2C(=O)NC3(CCC(F)(F)CC3)C2=O)n(C)c1-c1cncc(C(N)=O)c1` [Example 16-33], the IC50 was less than 500 nM.
As to `N#Cc1cccnc1Oc1ccc(C(=O)CN2C(=O)NC3(CCC(F)(F)CC3)C2=O)cc1` [Example 21-1, 2-(4-(2-(8,8-difluoro-2,4-dioxo-1,3-diazaspiro[4.5]decan-3-yl)acetyl)phenoxy)nicotinonitrile], the IC50 was less than 100 nM.
As for `Cc1c(C(=O)CN2CC3(CCC(F)(F)CC3)OC2=O)ccn1-c1ccccc1` [Example 4-9], the figure is less than 500 nM.
In the case of `Cc1ncccc1-c1ccc(C(=O)CN2CC3(CCC(F)(F)CC3)OC2=O)cc1` [Example 13-56] it was less than 500 nM; in that of `O=C(CN1C(=O)NC2(CCC(F)(F)CC2)C1=O)c1ccc(-c2nccc3cn[nH]c23)cc1` [Example 6-62], less than 500 nM; in that of `Cc1cc(-n2c(C)cc(C(=O)CN3C(=O)OC4(CCC(C(F)(F)F)CC4)C3=O)c2C)no1` (centres unmarked) [Example 1-5], less than 500 nM.
On to `Cc1cccnc1-c1ccc(C(=O)CN2C(=O)NC3(CCC(F)(F)CC3)C2=O)cc1` [Example 6-82], for which the IC50 is less than 500 nM.
In the case of `Cc1nc2ccc(C#N)nc2n1-c1ccc(C(=O)CN2C(=O)NC3(CCC(F)(F)CC3)C2=O)cc1` [Example 27-1, 3-(4-(2-(8,8-difluoro-2,4-dioxo-1,3-diazaspiro[4.5]decan-3-yl)acetyl)phenyl)-2-methyl-3H-imidazo[4,5-b]pyridine-5-carbonitrile] it was less than 10 nM; in that of `O=C(CN1C(=O)NC2(CCC(F)(F)CC2)C1=O)c1ccc(-c2cccnc2N2CC(O)C2)cc1` [Example 6-48], less than 500 nM; in that of `Cc1nc(C(=O)CN2C(=O)NC3(CCC(F)(F)CC3)C2=O)sc1-c1ccccc1C#N` [Example 18-6], less than 100 nM.
For the compound `Cc1c(C(=O)CN2C(=O)NC3(CCC(F)(F)CC3)C2=O)nn(C)c1-c1ccccc1` [Example 4-1], the IC50 is less than 100 nM.
With `O=C(CN1C(=O)NC2(CCC(F)(F)CC2)C1=O)c1ccc(-c2cncc3ccccc23)nc1` [Example 9-16], the IC50 is less than 100 nM.
In the case of `COc1ncccc1-c1cnc(C(=O)CN2C(=O)NC3(CCC(F)(F)CC3)C2=O)cn1` [Example 12-4] it was less than 100 nM.
In the case of `O=C(CN1C(=O)NC2(CCC(F)(F)CC2)C1=O)c1ccc(Oc2ccccn2)cc1` [Example 5-17] it was less than 100 nM.
As for `Cc1cc(C(=O)CN2C(=O)NC3(CCC(F)(F)CC3)C2=O)c(C)n1-c1cccc(Cl)c1` [Example 3-7], the figure is less than 100 nM.

Usually IC50 stands for the concentration needed to halve the response being measured.
